Test: Colour change in iron fortified strawberry fermented milk beverages (CIELAB colorimetry)
Type: physicochemical
Settings: for ΔEab* on addition / ΔEab* after heat treatment: colour difference vs beverage with no iron salts, approx. 2.1 mg iron per 100 g; for ΔEab* on addition: fermented milk beverage containing 2.1% strawberry, stirred under argon 20 minutes; for ΔEab* after heat treatment: heat treated at 95° C. for 2 minutes, 2.1% strawberry fermented milk beverage
Experimental: Ferrous picolinate was prepared according to the procedure of U.S. Pat. No. 4,315,927 Example 3. A fermented milk beverage containing 2.1% strawberry was iron fortified by the addition of ferrous sulphate (Dr Paul Lohmann™) (Sample A) or ferrous picolinate (Sample B). The amount of the ferrous salts were chosen to provide approximately 2.1 mg iron per 100 g fermented milk beverage. Each ferrous salt was added to the fermented milk beverage and stirred under argon for 20 minutes. A further sample without iron fortification was also prepared in the same manner. Colour measurements were performed in 1×1 cm polystyrene cuvettes using an X-Rite ColorEye 7000A colorimeter. The colorimeter was set up with a D65 light source, 10 degree observer angle and with specular component included. The colour difference between the beverage with no iron salts and the iron fortified beverages was measured for each ferrous salt and expressed as ΔEab* using the CIELAB colour scale.
The fermented milks were then heat treated at 95° C. for 2 minutes. Colour measurements were performed in the same manner as before. The colour difference between the beverage with no iron salts and the iron fortified beverages was measured for each ferrous salt and expressed as ΔEab* using the CIELAB colour scale.

Molecule | ΔEab* on addition | ΔEab* after heat treatment | colour compared with the beverage with no added iron (both after simple addition of the salts and after heat treatment, compared with ferrous sulphate)
O=S(=O)([O-])[O-].[Fe+2] [FeSO4 × H20, ferrous sulphate, reference compound] | 0.84 | 2.80 | 
ferrous picolinate | 0.36 | 1.66 | closer in colour to the beverage with no added iron than the beverage fortified with ferrous sulphate
